Laboratory results reported in US20260317324A1, “BIFUNCTIONAL COMPOUNDS FOR DEGRADING BRAF VIA UBIQUITIN PROTEOSOME PATHWAY” (Nurix Therapeutics, Inc., priority 2023, published 2026).

Experiments:
Format in all cases: cell-based
BRAF D594G = biological target: T1, BRAF D594G (Homo sapiens, UniProt P15056, D594G); experiment: BRAF HiBiT degradation assay, C-terminal HiBiT-tagged BRAF D594G overexpressed in HCT-116 BRAF−/− cells (clone 63), Nano-Glo HiBiT Lytic assay
T1 construct: Horizon Discovery (HCT-116 BRAF−/− cells); host or cells: HCT-116 BRAF−/− cells, clone 63, lentiviral transduction
Outline: (§1)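 HCT-116 BRAF−/− cells stably expressing the tagged mutant were seeded at 3,000 cells/well and grown 24 h at 37 °C before an 11-point half-log series from 1 μM to 0.01 nM, run in duplicate at 0.2% DMSO. Lytic HiBiT luminescence gave % protein remaining versus DMSO controls; DC50 was the fitted concentration at 50%.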

BRAF G466V = biological target: T2, BRAF G466V (Homo sapiens, UniProt P15056, G466V); experiment: BRAF HiBiT degradation assay, C-terminal HiBiT-tagged BRAF G466V overexpressed in HCT-116 BRAF−/− cells (clone 8), Nano-Glo HiBiT Lytic assay
T2 construct: Horizon Discovery (HCT-116 BRAF−/− cells); host or cells: HCT-116 BRAF−/− cells, clone 8, lentiviral transduction
Outline: as §1

BRAF V600E = biological target: T3, BRAF V600E (Homo sapiens, UniProt P15056, V600E); experiment: BRAF HiBiT degradation assay, C-terminal HiBiT-tagged BRAF V600E A375 cells (clone 1F10), Nano-Glo HiBiT Lytic assay; conditions: for Dmax: A-375
T3 construct: endogenous C-terminal HiBiT fusion tag on BRAF V600E allele; endogenous in cells; host or cells: A375 clone 1F10 (CRISPR-Cas9 knock-in of the HiBiT tag; parental A375 from ATCC)
Outline: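 A375 cells with CRISPR knock-in C-terminal HiBiT on endogenous BRAF V600E (clone 1F10) were seeded and cultured 24 h at 37 °C, then dosed with an 11-point half-log series (1 μM to 0.01 nM, duplicate, 0.2% DMSO). Lytic HiBiT luminescence gave % protein remaining; DC50 was the fitted concentration at 50%.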

BRAF G469A = biological target: T4, BRAF G469A (Homo sapiens, UniProt P15056, G469A); experiment: BRAF HiBiT degradation assay, C-terminal HiBiT-tagged BRAF G469A overexpressed in HCT-116 BRAF−/− cells (clone 34), Nano-Glo HiBiT Lytic assay
T4 construct: Horizon Discovery (HCT-116 BRAF−/− cells); host or cells: HCT-116 BRAF−/− cells, clone 34, lentiviral transduction
Outline: as §1

[1] = BRAF D594G, DC50 at 50%: fitted conc. at Y=50
[2] = HCT-116, BRAF D594G, percentage protein degraded at maximal compound effect relative to DMSO
[3] = BRAF G466V, DC50 at 50%: fitted conc. at Y=50
[4] = HCT-116, BRAF G466V, percentage protein degraded at maximal compound effect relative to DMSO
[5] = A375 (BRAF V600E), DC50 at 50%: fitted conc. at Y=50
[6] = A375 (BRAF V600E), percentage protein degraded at maximal compound effect relative to DMSO
[7] = Class 2, BRAF G469A, DC50 at 50%: fitted conc. at Y=50
[8] = HCT-116, Class 2, BRAF G469A, percentage protein degraded at maximal compound effect relative to DMSO
[9] = BRAF D594G (Class 3), HCT-116 BRAF−/− cells, DC50 at 50% degradation
[10] = BRAF D594G (Class 3), HCT-116 BRAF−/− cells, observed Dmax relative to DMSO control
[11] = BRAF G466V (Class 3), HCT-116 BRAF−/− cells, DC50 at 50% degradation
[12] = BRAF G466V (Class 3), HCT-116 BRAF−/− cells, observed Dmax relative to DMSO control
[13] = A375 (BRAF V600E, Class 1), DC50 at 50% degradation
[14] = A375 (BRAF V600E, Class 1), observed Dmax, % protein degraded relative to DMSO control
[15] = BRAF G469A (Class 2), HCT-116 BRAF−/− cells, DC50 at 50% degradation
[16] = BRAF G469A (Class 2), HCT-116 BRAF−/− cells, observed Dmax relative to DMSO control

T2 sequence (P15056 whole entry G466V): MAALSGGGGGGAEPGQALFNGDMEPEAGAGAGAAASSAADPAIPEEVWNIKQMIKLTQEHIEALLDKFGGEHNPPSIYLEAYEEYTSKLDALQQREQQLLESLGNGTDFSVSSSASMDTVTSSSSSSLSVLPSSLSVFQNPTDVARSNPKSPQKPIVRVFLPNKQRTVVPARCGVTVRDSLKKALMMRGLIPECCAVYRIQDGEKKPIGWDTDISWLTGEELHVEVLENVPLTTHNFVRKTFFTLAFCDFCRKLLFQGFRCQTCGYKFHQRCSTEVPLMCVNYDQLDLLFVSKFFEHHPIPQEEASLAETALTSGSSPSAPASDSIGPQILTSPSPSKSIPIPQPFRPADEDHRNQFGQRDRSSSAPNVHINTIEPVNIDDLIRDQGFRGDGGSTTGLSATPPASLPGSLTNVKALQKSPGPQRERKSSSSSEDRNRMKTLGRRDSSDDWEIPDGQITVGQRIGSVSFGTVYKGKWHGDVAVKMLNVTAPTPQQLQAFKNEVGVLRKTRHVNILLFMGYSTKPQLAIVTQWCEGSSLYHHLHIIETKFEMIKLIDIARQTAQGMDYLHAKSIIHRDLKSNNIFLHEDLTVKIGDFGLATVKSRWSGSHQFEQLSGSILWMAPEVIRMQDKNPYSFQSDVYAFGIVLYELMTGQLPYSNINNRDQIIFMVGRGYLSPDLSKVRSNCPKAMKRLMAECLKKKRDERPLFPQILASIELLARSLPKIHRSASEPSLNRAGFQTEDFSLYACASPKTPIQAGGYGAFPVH
T3 sequence (P15056 whole entry V600E, the tested form may be a part): as the sequence (P15056 whole entry G466V) above, with V466G, V600E counted along it
T4 sequence (P15056 whole entry G469A): as the sequence (P15056 whole entry G466V) above, with V466G, G469A counted along it
T1 sequence (P15056 whole entry D594G): as the sequence (P15056 whole entry G466V) above, with V466G, D594G counted along it

SMILES	DC50 (BRAF D594G; [1])	Dmax (BRAF D594G; [2])	DC50 (BRAF G466V; [3])	Dmax (BRAF G466V; [4])	DC50 (BRAF V600E; [5])	Dmax (BRAF V600E; [6])	DC50 (BRAF G469A; [7])	Dmax (BRAF G469A; [8])	DC50 (BRAF D594G; [9])	Dmax (BRAF D594G; [10])	DC50 (BRAF G466V; [11])	Dmax (BRAF G466V; [12])	DC50 (BRAF V600E; [13])	Dmax (BRAF V600E; [14])	DC50 (BRAF G469A; [15])	Dmax (BRAF G469A; [16])
CCCS(=O)(=O)Nc1cccc(-c2nc(C(C)(C)C)sc2-c2ccnc(NCC(C)(C)C3CCN(CC4CCN(c5ccc(C(=O)N[C@H]6CCC(=O)NC6=O)nc5)CC4)CC3)n2)c1F [Compound 146, 5-{4-[(4-{1-[(4-{2-tert-butyl-4-[2-fluoro-3-(propane-1-sulfonamido)phenyl]-1,3-thiazol-5-yl}pyrimidin-2-yl)amino]-2-methylpropan-2-yl}piperidin-1-yl)methyl]piperidin-1-yl}-N-[(3S)-2,6-dioxopiperidin-3-yl]pyridine-2-carboxamide]	> 500 nM	30 to 70%	< 10 nM	30 to 70%	50 to 500 nM	30 to 70%	> 500 nM	30 to 70%	–	–	–	–	–	–	–	–
CCCS(=O)(=O)Nc1cccc(-c2nc(-c3ccc(N4CCN(CC5CCN(c6ccc([C@@H]7CCC(=O)NC7=O)cc6)CC5)CC4)cc3)sc2-c2ccnc(N)n2)c1F [Compound 186, N-{3-[5-(2-aminopyrimidin-4-yl)-2-(4-{4-[(1-{4-[(3S)-2,6-dioxopiperidin-3-yl]phenyl}piperidin-4-yl)methyl]piperazin-1-yl}phenyl)-1,3-thiazol-4-yl]-2-fluorophenyl}propane-1-sulfonamide]	> 500 nM	30 to 70%	> 500 nM	30 to 70%	10 to 50 nM	> 70%	> 500 nM	< 30%	–	–	–	–	–	–	–	–
CCCS(=O)(=O)Nc1cccc(-c2nc(C3CCN(C(=O)C4CCN(CC5CCN(c6ccc([C@H]7CCC(=O)NC7=O)cc6)CC5)CC4)CC3)sc2-c2ccnc(NC)n2)c1F [Compound 204, N-{3-[2-(1-{1-[(1-{4-[(3R)-2,6-dioxopiperidin-3-yl]phenyl}piperidin-4-yl)methyl]piperidine-4-carbonyl}piperidin-4-yl)-5-[2-(methylamino)pyrimidin-4-yl]-1,3-thiazol-4-yl]-2-fluorophenyl}propane-1-sulfonamide]	> 500 nM	30 to 70%	> 500 nM	30 to 70%	< 10 nM	> 70%	> 500 nM	30 to 70%	–	–	–	–	–	–	–	–
O=C1CCN(c2ccc(N3CCC(CN4CCN(c5ccc(-n6cc(-c7cc(Cl)cc(NS(=O)(=O)N8CC[C@@H](F)C8)c7F)c(-c7ccncc7)n6)cc5)CC4)CC3)nc2)C(=O)N1 [Compound 263, (R)—N-(5-chloro-3-(1-(4-(4-((1-(5-(2,4-dioxotetrahydropyrimidin-1(2H)-yl)pyridin-2-yl)piperidin-4-yl)methyl)piperazin-1-yl)phenyl)-3-(pyridin-4-yl)-1H-pyrazol-4-yl)-2-fluorophenyl)-3-fluoropyrrolidine-1-sulfonamide]	–	–	–	–	–	–	–	–	< 10 nM	30 to 70%	< 10 nM	> 70%	< 10 nM	> 70%	< 10 nM	30 to 70%
CCCS(=O)(=O)Nc1cc(Cl)cc(-c2cn(-c3ccc(N4CCN(CC5CCN(c6ccc(N7CCC(=O)NC7=O)cc6)CC5)[C@H](C)C4)cc3)nc2-c2ccncc2)c1F [Compound 277, N-[5-chloro-3-(1-{4-[(3R)-4-({1-[4-(2,4-dioxo-1,3-diazinan-1-yl)phenyl]piperidin-4-yl}methyl)-3-methylpiperazin-1-yl]phenyl}-3-(pyridin-4-yl)-1H-pyrazol-4-yl)-2-fluorophenyl]propane-1-sulfonamide]	–	–	–	–	–	–	–	–	50 to 500 nM	30 to 70%	< 10 nM	> 70%	< 10 nM	> 70%	10 to 50 nM	30 to 70%
CCCS(=O)(=O)Nc1cc(Cl)cc(-c2cn(-c3ccc(N4CCN(CC5CCN(c6ccc([C@H]7CCC(=O)NC7=O)cc6)CC5)[C@@H](C)C4)cc3)nc2-c2ccncc2)c1F [Compound 278, N-[5-chloro-3-(1-{4-[(3S)-4-[(1-{4-[(3R)-2,6-dioxopiperidin-3-yl]phenyl}piperidin-4-yl)methyl]-3-methylpiperazin-1-yl]phenyl}-3-(pyridin-4-yl)-1H-pyrazol-4-yl)-2-fluorophenyl]propane-1-sulfonamide]	–	–	–	–	–	–	–	–	50 to 500 nM	30 to 70%	< 10 nM	> 70%	< 10 nM	> 70%	> 500 nM	30 to 70%

Continued, values first:

DC50 (BRAF D594G; [1])	Dmax (BRAF D594G; [2])	DC50 (BRAF G466V; [3])	Dmax (BRAF G466V; [4])	DC50 (BRAF V600E; [5])	Dmax (BRAF V600E; [6])	DC50 (BRAF G469A; [7])	Dmax (BRAF G469A; [8])	DC50 (BRAF D594G; [9])	Dmax (BRAF D594G; [10])	DC50 (BRAF G466V; [11])	Dmax (BRAF G466V; [12])	DC50 (BRAF V600E; [13])	Dmax (BRAF V600E; [14])	DC50 (BRAF G469A; [15])	Dmax (BRAF G469A; [16])	SMILES
> 500 nM	< 30%	> 500 nM	< 30%	50 to 500 nM	30 to 70%	> 500 nM	< 30%	–	–	–	–	–	–	–	–	CCCS(=O)(=O)Nc1cccc(-c2nc(C(C)(C)C)sc2-c2ccnc(NCC3CCN(CC4CCN(c5ccc(C(=O)N[C@H]6CCC(=O)NC6=O)nc5)CC4)CC3)n2)c1F [Compound 147, 5-{4-[(4-{[(4-{2-tert-butyl-4-[2-fluoro-3-(propane-1-sulfonamido)phenyl]-1,3-thiazol-5-yl}pyrimidin-2-yl)amino]methyl}piperidin-1-yl)methyl]piperidin-1-yl}-N-[(3S)-2,6-dioxopiperidin-3-yl]pyridine-2-carboxamide]
> 500 nM	30 to 70%	10 to 50 nM	30 to 70%	< 10 nM	> 70%	> 500 nM	30 to 70%	–	–	–	–	–	–	–	–	CCCS(=O)(=O)Nc1cccc(-c2nc(-c3ccc(N4CCN(CC5CCN(c6ccc([C@H]7CCC(=O)NC7=O)cc6)CC5)CC4)cc3)sc2-c2ccnc(N)n2)c1F [Compound 191, N-{3-[5-(2-aminopyrimidin-4-yl)-2-(4-{4-[(1-{4-[(3R)-2,6-dioxopiperidin-3-yl]phenyl}piperidin-4-yl)methyl]piperazin-1-yl}phenyl)-1,3-thiazol-4-yl]-2-fluorophenyl}propane-1-sulfonamide]
> 500 nM	30 to 70%	> 500 nM	30 to 70%	10 to 50 nM	> 70%	> 500 nM	< 30%	–	–	–	–	–	–	–	–	CCCS(=O)(=O)Nc1cccc(-c2nc(-c3ccc(C4CCN(CC5CCN(c6ccc([C@@H]7CCC(=O)NC7=O)cc6)CC5)CC4)cc3)sc2-c2ccnc(N)n2)c1F [Compound 192, N-{3-[5-(2-aminopyrimidin-4-yl)-2-(4-{1-[(1-{4-[(3S)-2,6-dioxopiperidin-3-yl]phenyl}piperidin-4-yl)methyl]piperidin-4-yl}phenyl)-1,3-thiazol-4-yl]-2-fluorophenyl}propane-1-sulfonamide]
–	–	–	–	–	–	–	–	< 10 nM	> 70%	< 10 nM	> 70%	< 10 nM	> 70%	< 10 nM	> 70%	O=C1CC[C@H](c2ccc(N3CCC(CN4CCN(c5ccc(-n6cc(-c7cc(Cl)cc(NS(=O)(=O)N8CC[C@@H](F)C8)c7F)c(-c7ccncc7)n6)cc5)CC4)CC3)nc2)C(=O)N1 [Compound 264, (R)—N-(5-chloro-3-(1-(4-(4-((1-(5-((R)-2,6-dioxopiperidin-3-yl)pyridin-2-yl)piperidin-4-yl)methyl)piperazin-1-yl)phenyl)-3-(pyridin-4-yl)-1H-pyrazol-4-yl)-2-fluorophenyl)-3-fluoropyrrolidine-1-sulfonamide]
–	–	–	–	–	–	–	–	< 10 nM	30 to 70%	< 10 nM	> 70%	< 10 nM	> 70%	10 to 50 nM	30 to 70%	CCCS(=O)(=O)Nc1cc(Cl)cc(-c2cn(-c3ccc(N4CCN(CC5CCN(c6ccc([C@H]7CCC(=O)NC7=O)cc6)CC5)[C@H](C)C4)cc3)nc2-c2ccncc2)c1F [Compound 275, N-[5-chloro-3-(1-{4-[(3R)-4-[(1-{4-[(3R)-2,6-dioxopiperidin-3-yl]phenyl}piperidin-4-yl)methyl]-3-methylpiperazin-1-yl]phenyl}-3-(pyridin-4-yl)-1H-pyrazol-4-yl)-2-fluorophenyl]propane-1-sulfonamide]
